Laboratory results reported in US11952586B2, “B-cell cultivation method” (Hoffmann-La Roche Inc., priority 2017, dated 2024).

Key:
EL-4 B5 cells = assay: vitality of irradiated EL-4 B5 cells in presence of PMA; type: cell-based, murine
Source text: Different PMA concentrations in combination with single deposited cells of a non-immunized animal have been tested.

single deposited B-cells = assay: co-cultivation of single deposited B-cells with EL-4 B5 feeder cells; IgG in supernatant by ELISA; type: cell-based, rabbit; conditions: for frequency per plate of rbIgG-positive wells: 5,000 non-irradiated EL-4 B5 cells per well
Method: Single cell sorted B-cells were cultured in 96-well plates with 200 μl/well EL-4 B5 medium with Pansorbin Cells (SAC) (Calbiochem (Merck), Darmstadt, Deutschland), EL-4 B5 cells (0-5×10^4/well) and rabbit thymocyte supernatant or cytokine mix, respectively, for 7 days at 37° C. in an atmosphere of 5% CO2 in the incubator. B-cell culture supernatants were removed for screening and the cells harvested immediately for variable region gene cloning or frozen at −80° C. in 100 μl RLT buffer (Qiagen, Hilden, Germany).
A mixture of 0.5 μg/ml of biotinylated mouse anti-rabbit IgG antibody (Sigma-Aldrich) and 0.35 μg/ml anti-rabbit IgG HRP conjugate (Sigma-Aldrich) was transferred to 384 well streptavidin coated microtiter plates (MicroCoat Biotechnologie GmbH). Dilutions of B-cell supernatants in PBS supplemented with 0.5% BSA and 0.05% Tween®-20 were added and incubated for 90 min at RT. After repeated washing (6×) with PBST (phosphate buffered saline with 0.2% Tween buffer the plates were developed with BM Blue® HRP substrate solution and color formation was measured by absorbance at 370 nm. A commercial rabbit IgG (Sigma-Aldrich) was used as a calibration standard.

[1] = PMA 0.048 ng/ml, 3 Gy, 15k/Well
[2] = PMA 0.048 ng/ml, 4 Gy, 20k/Well
[3] = PMA 0.048 ng/ml, 5 Gy, 20k/Well
[4] = PMA 0.048 ng/ml, 8 Gy, 20k/Well
[5] = PMA 0.048 ng/ml, 50 Gy, 50k/Well
[6] = PMA 0.109 ng/ml, 3 Gy, 15k/Well
[7] = PMA 0.109 ng/ml, 4 Gy, 20k/Well
[8] = PMA 0.109 ng/ml, 5 Gy, 20k/Well
[9] = PMA 0.109 ng/ml, 8 Gy, 20k/Well
[10] = PMA 0.109 ng/ml, 50 Gy, 50k/Well

`CCCCCCCCCCCCCC(=O)O[C@@H]1[C@@H](C)[C@@]2(O)[C@@H](C=C(CO)C[C@]3(O)C(=O)C(C)=C[C@@H]23)[C@@H]2C(C)(C)[C@]12OC(C)=O` [PMA, phorbol-12-myristate-13-acetate] gave a Vitality (EL-4 B5 cells; c(PMA) 0.03 ng/ml, 4 Gy) of 54.8%, a Vitality (EL-4 B5 cells; c(PMA) 0.03 ng/ml, 50 Gy) of 3.9% and a Vitality (EL-4 B5 cells; c(PMA) 0.06 ng/ml, 4 Gy) of 45.4%. For the same compound, the Vitality (EL-4 B5 cells; c(PMA) 0.125 ng/ml, 4 Gy) was 39.8%, the Vitality (EL-4 B5 cells; c(PMA) 0.25 ng/ml, 4 Gy) was 34% and the Vitality (EL-4 B5 cells; c(PMA) 0.25 ng/ml, 50 Gy) was 9.5%. The Vitality (EL-4 B5 cells; c(PMA) 0.5 ng/ml, 4 Gy) was 32.2%, the Vitality (EL-4 B5 cells; c(PMA) 1.3 ng/ml, 4 Gy) was 19.2% and the Vitality (EL-4 B5 cells; c(PMA) 1.3 ng/ml, 50 Gy) was 17.4%. For the same compound, the “influence of PMA concentration on frequency of IgG positive wells or productivity” value (single deposited B-cells; 4 Gy irradiated EL-4 B5 cells, 0.015 ng/ml to 1.3 ng/ml PMA) was “no influence”, the “effect of the addition of PMA on frequency and productivity” value (single deposited B-cells; 50 Gy irradiated EL-4 B5 cells) was “concentration dependent effect” and the “Average IgG Productivity of all IgG+ wells” value (“Average IgG Productivity” for short) (single deposited B-cells; [1]) was 1.405 µg/mL. The “IgG+ Frequency” value (single deposited B-cells; [1]) was 48.8 % total wells, the “Average IgG Productivity” value (single deposited B-cells; [2]) was 5.465 µg/mL and the “IgG+ Frequency” value (single deposited B-cells; [2]) was 73.8 % total wells. The “Average IgG Productivity” value (single deposited B-cells; [3]) was 5.769 µg/mL, the “IgG+ Frequency” value (single deposited B-cells; [3]) was 71.4 % total wells and the “Average IgG Productivity” value (single deposited B-cells; [4]) was 5.739 µg/mL. The “IgG+ Frequency” value (single deposited B-cells; [4]) was 84.5 % total wells, the “Average IgG Productivity” value (single deposited B-cells; [5]) was 2.821 µg/mL and the “IgG+ Frequency” value (single deposited B-cells; [5]) was 14.3 % total wells. For the same compound, the “frequency per plate of rbIgG-positive wells” value (“frequency per plate” below) (single deposited B-cells; PMA 0.08 ng/ml, 0.031x CM) was 39.3 % total, the “frequency per plate” value (single deposited B-cells; PMA 0.08 ng/ml, 0.1x CM) was 44.0 % total and the “frequency per plate” value (single deposited B-cells; PMA 0.08 ng/ml, 0.31x CM) was 51.2 % total. For the same compound, the “frequency per plate” value (single deposited B-cells; PMA 0.08 ng/ml, 1x CM) was 65.5 % total, the “frequency per plate” value (single deposited B-cells; PMA 0.08 ng/ml, 2x CM) was 65.5 % total and the “Average IgG Productivity” value (single deposited B-cells; [6]) was 2.932 µg/mL. For the same compound, the “IgG+ Frequency” value (single deposited B-cells; [6]) was 47.6 % total wells, the “Average IgG Productivity” value (single deposited B-cells; [7]) was 5.772 µg/mL and the “IgG+ Frequency” value (single deposited B-cells; [7]) was 76.2 % total wells. The “Average IgG Productivity” value (single deposited B-cells; [8]) was 5.335 µg/mL, the “IgG+ Frequency” value (single deposited B-cells; [8]) was 83.3 % total wells and the “Average IgG Productivity” value (single deposited B-cells; [9]) was 5.614 µg/mL. For the same compound, the “IgG+ Frequency” value (single deposited B-cells; [9]) was 77.4 % total wells, the “Average IgG Productivity” value (single deposited B-cells; [10]) was 1.942 µg/mL and the “IgG+ Frequency” value (single deposited B-cells; [10]) was 16.7 % total wells. For the same compound, the “frequency per plate” value (single deposited B-cells; PMA 0.14 ng/ml, 0.031x CM) was 35.7 % total, the “frequency per plate” value (single deposited B-cells; PMA 0.14 ng/ml, 0.1x CM) was 52.4 % total and the “frequency per plate” value (single deposited B-cells; PMA 0.14 ng/ml, 0.31x CM) was 54.8 % total. For the same compound, the “frequency per plate” value (single deposited B-cells; PMA 0.14 ng/ml, 1x CM) was 69.0 % total, the “frequency per plate” value (single deposited B-cells; PMA 0.14 ng/ml, 2x CM) was 54.8 % total and the “frequency per plate” value (single deposited B-cells; PMA 0.25 ng/ml, 0.031x CM) was 53.6 % total. For the same compound, the “frequency per plate” value (single deposited B-cells; PMA 0.25 ng/ml, 0.1x CM) was 54.8 % total, the “frequency per plate” value (single deposited B-cells; PMA 0.25 ng/ml, 0.31x CM) was 73.8 % total and the “frequency per plate” value (single deposited B-cells; PMA 0.25 ng/ml, 1x CM) was 65.5 % total. For the same compound, the “frequency per plate” value (single deposited B-cells; PMA 0.25 ng/ml, 2x CM) was 48.8 % total, the “Average IgG Productivity” value (single deposited B-cells; PMA 0.25 ng/ml, 3 Gy, 15k/Well) was 3.094 µg/mL and the “IgG+ Frequency” value (single deposited B-cells; PMA 0.25 ng/ml, 3 Gy, 15k/Well) was 47.6 % total wells. The “Average IgG Productivity” value (single deposited B-cells; PMA 0.25 ng/ml, 4 Gy, 20k/Well) was 4.61 µg/mL, the “IgG+ Frequency” value (single deposited B-cells; PMA 0.25 ng/ml, 4 Gy, 20k/Well) was 75 % total wells and the “Average IgG Productivity” value (single deposited B-cells; PMA 0.25 ng/ml, 5 Gy, 20k/Well) was 5.313 µg/mL. The “IgG+ Frequency” value (single deposited B-cells; PMA 0.25 ng/ml, 5 Gy, 20k/Well) was 84.5 % total wells and the “Average IgG Productivity” value (single deposited B-cells; PMA 0.25 ng/ml, 8 Gy, 20k/Well) was 5.945 µg/mL.
